Data on 1 sequence can be found in patent US20170131285A1, “METHODS AND COMPOSITIONS FOR DIAGNOSING, MONITORING AND TREATING CANCER” (INSERM (Institut National de la Sante et de la Recherche …, priority 2014, published 2017).

Where no end group is shown, it is not given here.

One assay relates to EL4 tumors. Kind of assay: EL4 lymphoma tumor model in C57BL6 mice. It counts as in vivo, mouse. As for the experimental part:
FIG. 10: A8 anti-tumor effect in mice is associated with an increased anti-tumor immune response. Mice were s.c. injected with EL4 cells (7·10^5). On day 5, animals were treated every two days until the end of the experiment with either A0 (control aptamer) or A8 (3 mg/kg, i.p. injection). On day 6, half the animals were i.p. treated with a single dose of 5-fluorouracil (5FU, 25 mg/kg). A) At day 10, the percentage of MDSC (Gr1^+ CD11b^+) cells in the spleen collected from the different groups of mice was analyzed by flow cytometry (6 animals per group). As a negative control (Ctl) we used animals with no tumors. B) Tumor size was measured every two days (6 animals per group; n=3). The open symbols represent animals treated with 5FU. T test: *, p<0.05, **, p<0.01, (n=3). C) EL4 tumor sections were performed 10 days after injection of A8. Dendritic cells and macrophages were labeled using, CD11c and F4/80 antibodies. A representative image is shown (n=6 per group). Labeled cells were counted from 300 cells chosen randomly in different microscopic fields.
Animals were killed 15 or 18 days after cell injection. The site of tumor cell injection was resected and snap-frozen in liquid nitrogen. An immunohistochemical study of tumor-infiltrating inflammatory cells was performed on acetone-fixed 5 μm cryostat sections. Tumoral biopsies were blocked in PBS with 3% of BSA (10 min, RT) anti-CD11c (1/50, monoclonal, BD Pharmingen), anti-CD3 (1/50, monoclonal, BD Pharmingen), anti-F4/80 (1/100, monoclonal, BD Pharmingen), diluted in PBS with 1% of BSA, was added on slides and incubated 45 minutes at RT, after washing with PBS. Nuclei were colored with mounting medium: Prolong Gold with Dapi (Molecular Probe). […] Images were acquired using an AxioCam MRm monochrome CCD camera (Carl Zeiss GmbH). Six pictures were taken in random fields for each labeling, and analyzed using image J software.
To confirm A8 in vivo results shown in FIG. 5, the inventors have used another syngeneic model: lymphoma EL4 tumors developed in C57BL6 mice. […]

Another assay has as its system B16F10 tumors. In words: B16F10 melanoma tumor model in C57/BL6 mice. The format is in vivo, mouse. As for the experimental part:
FIG. 5: A8 anti-tumor effect in mice is associated to MDSC and an immune anti-tumor response. (A) Mice were sc injected with B16F10 cells (5×10^4). On day 4, when tumor size was about 0.9 mm^3, animals were treated every two days until the end of the experiment with A0 or A8 (3 mg/kg dissolved in PBS, i.p injection). On day 5, half the animals were treated with cisplatin as a single dose (CDDP, i.p injection, 5 mg/kg). At day 18, the percentage of Gr1^+ CD11b^+ cells in the spleen collected from the different groups of mice was analyzed by flow cytometry (6 animals per group). As a MDCS negative control (Ctl) we used animals with no tumor cells injected. Right panels, a representative immunoblot of pSTAT3 in the MDSC (Gr1^+ CD11b^+ cells) isolated from the spleen of control animals (A0/PBS) or A8 and CDDP-treated animals (A8/CDDP). 14-3-3 is used as a loading control. (B) Analysis of tumor growth in the animals described above. Tumor size was measured every two days (6 animals per group). The white symbols represent the tumors from animals treated with cisplatin. (C) HSP70-exosomes isolated from B16F10 cells treated or not with cisplatin (CDDP, 25 μM) were determined by flow cytometry. Data represent the percentage of MFI+/−SD (n=3); *, p<0.05. (D) Association curves of HSP70-exosomes present in tumor-bearing mice sera treated or not with cisplatin (5 mg/kg). For the biolayer interferometry, biotinylated A8 was immobilized on streptavidin sensor tips. Curves represent mean values of triplicate measurements for each concentration (for each curve, the blood of 5 mice per group was pooled).
Exponentially growing B16F10 were harvested and resuspended in an RPMI medium without FBS. In vivo studies were performed in wild-type C57/BL6 mice (Charles River). B16F10 cells (5·10^4) were injected s.c. into the right flank Tumor volumes were evaluated every 2 days. Mice were treated with a control peptide aptamer A0 (3 mg/kg) or the HSP70 aptamer A8 (3 mg/kg) and half mice were treated with cisplatin (CDDP, […]). The animals were treated according to the guidelines of the Ministère de la Recherche et de la Technologie, France. All experiments were approved by the Comité d'Ethique de l'Université de Bourgogne.
MDSC cell isolation and analysis: Single-cell suspensions were prepared from spleens, and red cells were removed using ammonium chloride lysis buffer. Gr-1+ cells were isolated from spleens of different group of tumor-bearing mice or naive mice by labeling the cells with PE Cy7 Ab to Gr-1, then using magnetic PE Cy7 beads and LS MACS columns (Miltenyi Biotec). For extracellular staining of immune markers, single-cell suspensions were prepared. We incubated 1·10^6 freshly prepared cells with fluorochrome-coupled CD11b antibody (eBioscience). All events were acquired by a BD Bioscience LSR-II device and analyzed with FlowJo (Tree Star).
Animals were killed 18 days after cell injection. The site of tumor cell injection was resected and snap-frozen in liquid nitrogen. An immunohistochemical study of tumor-infiltrating inflammatory cells was performed on acetone-fixed 5 μm cryostat sections.
Next, we tested whether A8 was also able to block the immunosuppressive effect of MDSC in an in vivo cancer model. We performed subcutaneous injection at day 0 of B16F10 cells or media as a control in C57/BL6 mice. When tumor size reached about 0.9 mm^3 ([…]), mice were treated i.p. with a control peptide aptamer (A0) or A8 every two days until the end of the experiment. When indicated, half of the animals received cisplatin (CDDP, […], i.p.) as a single dose. Tumor growth was measured every two days. After 18 days, we analyzed the percentage of MDSC present in mice spleen (6 animals per group) by FACS using the specific markers Gr1^+ and CD11b^+ (FIG. 5A). […]

Take SPWPRPTY [Aptamer A8, SPWPRPTY]: in the assay on EL4 tumors, the “tumor infiltration by immune cells” value is reported as “strongly infiltrated by different immune cells”. Also, the “number of MDSC in the spleen” value in the assay on EL4 tumors (A8 3 mg/kg i.p. every two days, day 10) was “a decrease in the number of MDSC in the spleen”. In addition, the “size of the tumors” value in the assay with EL4 tumors (A8 3 mg/kg i.p., with or without single dose 5FU 25 mg/kg i.p.) was “a decrease in the size of the tumors mainly when added in combination to 5FU”. Also, the “intra-tumor infiltration of immune cells (CD3+, CD11c+, CD11b+, F4/80+)” value in the assay with B16F10 tumors (B16F10 model) is listed as “intra-tumor infiltration of immune cells”. For the same sequence, the “anti-cancer properties of cisplatin” value with B16F10 tumors (B16F10 model, A8 added to cisplatin) is reported as “strong increase”. Further, the “percentage of MDSC (Gr1+ CD11b+) in spleen” value in the assay on B16F10 tumors (B16F10 tumor-bearing C57/BL6 mice, day 18, A0 or A8 3 mg/kg i.p. every two days, cisplatin single i.p. dose, 6 animals per group) is 6+/−0.7%. Also, the “activity of spleen MDSC measured by phosphorylated STAT3” value with B16F10 tumors (after cisplatin treatment, immunoblot of Gr1+ CD11b+ cells) is on record as “affected their activity”. Further, the “tumor growth / tumor progression” value in the assay on B16F10 tumors (tumor-bearing mice) is given as “inhibits tumor progression”.
